Laboratory results taken from patent US9999659B2, “Treatments using a peptide and/or vaccine” (AFFIRIS AG, priority 2012, dated 2018).
No end group written: not given here.

Columns and labels:
Balb/c mice = assay: Total cholesterol assay in immunized mice; type: in vivo, mouse
Method: The peptides were conjugated via the heterobifunctional linker GMBS (4-Maleimidobutyric acid N-hydroxysuccinimide ester) to KLH (Keyhole Limpet Hemocyanin).
5 Balb/c mice were subcutaneously immunized. Mice had access to food and water ad libitum and were kept under a 12 h light/dark cycle. The age of mice at the beginning of experiments was 8 to 10 weeks.
Mice were injected four times in 2 week intervals with 15 μg of net peptide coupled to KLH and adsorbed to Alhydrogel as adjuvant in a volume of 1 ml in total.
Blood was taken approximately 2 weeks after the final injection.
Total cholesterol was measured with the LabAssay™ Cholesterol Kit (Wako).
For this purpose mice have been immunized with HPLC purified peptides coupled to KLH and formulated with an adjuvant (Alum) as vaccines (Sequence-KLH/Alum). In the first experiment, a direct comparison between the original PCSK9 sequence and the novel sequence […] has been performed. Here, mice have been immunized with irrelevant peptide vaccine (irrelevant peptide-KLH/Alum) as a negative control group, original PCSK9 sequence vaccine ([…]-KLH/Alum) and the novel sequence vaccine ([…]-KLH/Alum). The latter group ([…]-KLH/Alum) has been used not only to compare its functionality of the induced antibodies to the functionality of the antibodies generated using the original PCSK9 sequence vaccine ([…]-KLH/Alum), but also as a bridging group between different experiments.
Subsequently, a second experiment has been performed wherein mice have been immunized with irrelevant peptide as a negative control group and all the three novel sequences […], […] and […], all coupled to KLH and formulated as vaccines. As it has been already mentioned above, the mice immunized with the novel sequence ([…]-KLH/Alum) have been used as a bridging group between the experiments. In fact, the bridging group injected with the novel sequence ([…]-KLH/Alum) is behaving in a similar way in both experiments (FIGS. 5A, 5B, 6A and 6B) and most importantly, all three groups immunized with vaccines containing one of the sequences […], […] or […] behave in a very similar way in terms of reduction of plasma total cholesterol levels (FIGS. 6A and 6B).

[1] = system: polyclonal antibodies specific for human PCSK9 aa 153-162 or aa 153-165; assay: Binding ELISA: mimotopes coated on plates, detected by mouse sera raised against the original PCSK9 sequence; conditions: mimotope coated at 1 μmol/mL; titer = serum dilution where 50% of ODmax is reached
From the text: FIGS. 1A and 1B show detection of PCSK9 mimotopes sequences by mouse sera containing polyclonal antibodies specific for human PCSK9 aa 153-162 or aa 153-165
The graphs display median titers from all mimotopes compared to the irrelevant negative control. As a positive control the original human PCSK9 sequence is included: aa 153-162 or aa 153-165. Mimotopes with values over 1:50.000 are considered as good candidates.
Mimotopes were coated on ELISA plates at a concentration of 1 μmol/mL. After blocking unspecific binding (1% BSA in PBS) appropriate dilutions of sera from mice injected with the original human PCSK9 sequence aa 153-162 or aa 153-165 (SEQ ID No. 3) were added and incubated for approximately 1 hour. Subsequently, detection with anti-mouse IgG antibodies was performed. ABTS was used as substrate. OD measurements were performed at 405 nm and titers were defined as the dilution of the serum where 50% of the ODmax is reached.

[2] = system: polyclonal antibodies in mouse sera raised against original PCSK9 sequence (aa 153-162 or aa 153-165); assay: Competition ELISA: mimotope competes with the original PCSK9 sequence for binding of polyclonal antibodies in mouse sera; conditions: 20 μg peptide incubated with sera; irrelevant peptide = 0% competition
From the text: FIGS. 2A and 2B show the ability of PCSK9 mimotopes to compete with the original PCSK9 sequence (aa 153-162 or aa 153-165) for binding polyclonal antibodies in mouse sera raised specifically against the latter.
All mimotopes are compared to the negative group (0% competition by an irrelevant peptide). As a positive control for each competition ELISA the original PCSK9 sequences were used (aa 153-162 or aa 153-165).
The graphs display the ability (in percent) of the mimotopes to compete with the original PCSK9 sequence (aa 153-162 or aa 153-165) for binding polyclonal antibodies raised against the latter.
20 μg of each indicated peptide was incubated with sera from mice injected with original PCSK9 sequence (aa 153-162 or aa 153-165: SEQ ID No. 2). Sera were then incubated on ELISA plates coated with the original PCSK9 sequence (aa 153-162 or aa 153-165: SEQ ID No. 2). Detection was performed with anti-mouse IgG antibodies, ABTS was used as a chromogenic substrate and optical density (OD) was measured at 405 nm.
Mimotopes diminishing >20% subsequent binding of the polyclonal antibodies from the sera to the original human PCSK9 epitope (aa 153-162 or 153-165: SEQ ID No. 3) coated on the ELISA plates were considered as competing mimotopes and as good candidates.

Substance | Median Titer Binding ELISA (ODmax/2) [1] | % Competition compared to the related control group [2] | further results
VIPWNLERIL: vaccine containing novel sequence VIPWNLERIL (SEQ ID No. 55), coupled to KLH and formulated as vaccine (also: coupled to KLH) |  |  | total cholesterol compared to the group injected with vaccine containing the original PCSK9 sequence SIPWNLERIT (Balb/c mice; result in words): significantly reduce
SVPWNLERIQ: vaccine containing novel sequence SVPWNLERIQ (SEQ ID No. 60), coupled to KLH and formulated as vaccine (also: coupled to KLH) |  |  | total cholesterol compared to the group injected with vaccine containing the original PCSK9 sequence SIPWNLERIT (Balb/c mice; result in words): significantly reduce
43 (SIPWNLERITAPR; Artificial Sequence, Mimotope) [compound 43] | 226,000 | 70% | 
57 (SVPWNLERLT; Artificial Sequence, Mimotope) [compound 57] | 154,000 | 57% | 
60 (SVPWNLERIQ; Artificial Sequence, Mimotope) [compound 60] | 222,000 | 61% | 
33 (SIPWNLEKIT; Artificial Sequence, Mimotope) [compound 33] | 59,000 | 19% | 
66 (SIPWSLERIL; Artificial Sequence, Mimotope) [compound 66] | 199,000 | 46% | 
68 (VQPWSLERTL; Artificial Sequence, Mimotope) [compound 68] | 95,000 | 48% | 
69 (SQPWSLERTL; Artificial Sequence, Mimotope) [compound 69] | 98,000 | 53% | 
47 (SIPWNLERITPTR; Artificial Sequence, Mimotope) [compound 47] | 155,000 | 73% | 
29 (SIPWNFERITPPR; Artificial Sequence, Mimotope) [compound 29] | 186,000 | 79% | 
72 (VQPWSLERLL; Artificial Sequence, Mimotope) [compound 72] | 166,000 | 66% | 
5 (TIPWNLERIT; Artificial Sequence, Mimotope) [compound 5] | 198,000 | 52% | 
6 (VIPWNLERIT; Artificial Sequence, Mimotope) [compound 6] | 12,000 | 51% | 
36 (SIPWNLERLT; Artificial Sequence, Mimotope) [compound 36] | 192,000 | 76% | 
58 (SVPWNLERTT; Artificial Sequence, Mimotope) [compound 58] | 116,000 | 73% | 
15 (SIPFNLERIT; Artificial Sequence, Mimotope) [compound 15] | 42,000 | 15% | 
SIPWSLERIT-KLH/Alum: novel sequence vaccine: peptide SIPWSLERIT (SEQ ID No. 21) coupled to KLH and formulated with adjuvant Alum (also: coupled to KLH, site not given here) |  |  | levels of total cholesterol in comparison to the negative control group (Balb/c mice; FIGS. 5A and 5B, result in words): strongly reduce; % decrease of TC compared to the irrelevant (negative) control group (Balb/c mice; first experiment, FIG. 5B, mice immunized with Sequence-KLH/Alum): 35-40%; total cholesterol compared to the group injected with vaccine containing the original PCSK9 sequence SIPWNLERIT (Balb/c mice; result in words): significant reduction; total cholesterol compared to the group injected with vaccine containing the original PCSK9 sequence SIPWNLERIT (Balb/c mice; result in words, listed as SIPWSLERIT): significantly reduce
63 (SQPWNLERIQ; Artificial Sequence, Mimotope) [compound 63] | 167,000 | 66% | 
19 (SIPDNLERIT; Artificial Sequence, Mimotope) [compound 19] | 23,000 | 3% | 
24 (SIPWDLERITPPR; Artificial Sequence, Mimotope) [compound 24] | 231,000 | 74% | 
32 (SIPWNLDRITPPR; Artificial Sequence, Mimotope) [compound 32] | 151,000 | 53% | 
70 (SVPWNLEKLT; Artificial Sequence, Mimotope) [compound 70] | 47,000 | 11% | 
49 (SIPWNLERITPPA; Artificial Sequence, Mimotope) [compound 49] | 163,000 | 65% | 
14 (SIVWNLERITPPR; Artificial Sequence, Mimotope) [compound 14] | 146,000 | 78% | 
30 (SIPWNVERITPPR; Artificial Sequence, Mimotope) [compound 30] | 197,000 | 78% | 
